This note sets out measurements from ChEMBL document CHEMBL3400119, “Triazole-containing N-acyl homoserine lactones targeting the quorum sensing system in Pseudomonas aeruginosa” (Bioorg Med Chem, 2015).

Test [1] has as its system Pseudomonas aeruginosa. The experiment in a line: (§1) Antagonist activity at rhlA in Pseudomonas aeruginosa harboring rhlA-gfp gene assessed as inhibition of […]-induced quorum sensing by green fluorescence protein reporter assay. Background: In a reporter assay the amount or activity of a reporter protein is the signal.
Test [2] concerns the target Elastase (Pseudomonas aeruginosa (strain ATCC 15692 / PAO1 / 1C / PRS 101 / LMG12228)) (UniProt P14756). In words: Antagonist activity at lasB in Pseudomonas aeruginosa harboring lasB-gfp gene assessed as inhibition of […]-induced quorum sensing by green fluorescence protein reporter assay.
Test [3] in a line: Antagonist activity at luxI in Escherichia coli harboring luxI-gfp gene assessed as inhibition of 3-oxo-C6-HSL-induced quorum sensing by green fluorescence protein reporter assay.
A short description of test [4]: Agonist activity at lasB in Escherichia coli harboring lasB-gfp gene by green fluorescence protein reporter assay.
The nature of test [5]: as §1.

Activity calls are given as the source filed them. The rule behind the calls is not given here.

Elastase (Pseudomonas aeruginosa (strain ATCC 15692 / PAO1 / 1C / PRS 101 / LMG12228)), sequence (P14756 198-498 limits assumed): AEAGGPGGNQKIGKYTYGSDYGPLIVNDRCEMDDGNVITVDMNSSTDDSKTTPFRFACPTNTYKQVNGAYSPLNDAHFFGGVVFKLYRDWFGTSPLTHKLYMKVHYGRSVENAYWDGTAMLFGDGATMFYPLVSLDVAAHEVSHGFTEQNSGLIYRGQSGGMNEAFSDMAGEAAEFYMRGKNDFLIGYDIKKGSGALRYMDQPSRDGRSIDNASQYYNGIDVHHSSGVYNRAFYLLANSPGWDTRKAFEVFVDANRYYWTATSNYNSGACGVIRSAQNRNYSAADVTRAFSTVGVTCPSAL

Broadly, the IC50 is the concentration at which inhibition is half-maximal. With `[N-]=[N+]=Nc1cccc(C(=O)N[C@H]2CCOC2=O)c1`, the inhibition result in test [1] and in test [2] was “inactive” in each case. Besides, in test [3], the IC50 amounted to 223 µM.
On to `Nc1ccc(-n2cc(-c3ccc(C(=O)N[C@H]4CCOC4=O)cc3)nn2)cc1`, for which the inhibition entry in test [1] and in test [2] was “inactive” in each case. For the same compound, in test [3], the IC50 was 95 µM.
The EC50 is the concentration needed to bring the measured effect to its halfway point. Read a high EC50 as lower potency in that assay. As to `O=Cc1cccc(-n2cc(CCC(=O)N[C@H]3CCOC3=O)nn2)c1`, the inhibition entry in test [1] is “inactive”. In test [4], this compound yielded a half-maximal effective concentration (EC50) of 71 µM. Besides, the half-inhibitory concentration (IC50) in test [3] was found to be 5 µM.
On to `Nc1cccc(-n2cc(CCC(=O)N[C@H]3CCOC3=O)nn2)c1`, for which the half-maximal effective concentration (EC50) in test [4] was found to be 2 µM. This counts as single-digit micromolar.
`O=C(Cn1cc(-c2ccsc2)nn1)N[C@H]1CCOC1=O`: the IC50 in test [5] worked out at 1030 µM; in test [3], 55 µM.
`O=C(Cn1cc(CSc2ccccc2)nn1)N[C@H]1CCOC1=O`: the inhibition result in test [1] is “inactive”. In addition, a half-maximal response in test [4] (EC50) required 2 µM. Besides, in test [3], the IC50 came to 602 µM.
On the same counts, the results for `O=C(Cn1cc(C2CCCCC2)nn1)N[C@H]1CCOC1=O` are “inactive”, 44 µM and 342 µM.
In the case of `O=C(Cn1cc(C2CCCC2)nn1)N[C@H]1CCOC1=O`, the IC50 in test [5] was 898 µM; in test [3], 50 µM. In addition, in test [4], it took 3 µM to reach a half-maximal effect (EC50).
`O=C(Cn1cc(CC2CCCCC2)nn1)N[C@H]1CCOC1=O` had an EC50 in test [4] of 8 µM.
Turning to `O=C(Cn1cc(C2CC2)nn1)N[C@H]1CCOC1=O`, the IC50 in test [5] was found to be 799 µM; in test [3], 88 µM.
`[N-]=[N+]=Nc1ccc(C(=O)N[C@H]2CCOC2=O)cc1`: the inhibition result in test [1] was “inactive”. Also, the IC50 in test [3] is 244 µM.
`CCCCCc1cn(CC(=O)N[C@H]2CCOC2=O)nn1` had an EC50 in test [4] of 1 µM.
For `CCCc1cn(CC(=O)N[C@H]2CCOC2=O)nn1`, the IC50 in test [5] worked out at 927 µM; in test [3], 71 µM.
As to `CCCCc1cn(CC(=O)N[C@H]2CCOC2=O)nn1`, the inhibition entry in test [1] and in test [2] was “inactive” throughout. For the same compound, the EC50 in test [4] is 57 µM. Also, the IC50 in test [3] is 751 µM.
With `O=C(Cn1cc(-c2ccccc2)nn1)N[C@H]1CCOC1=O`, the inhibition result in test [1] and in test [2] was “inactive” in each case. In addition, the IC50 in test [3] came out at 192 µM.
For the compound `CCCCCCc1cn(CC(=O)N[C@H]2CCOC2=O)nn1`, the inhibition entry in test [1] is “inactive”. Also, in test [4], the EC50 turned out to be 12 µM. For the same compound, the IC50 in test [3] was found to be 578 µM.
